Test results taken from paper PMC5428354, “Screening of a natural compound library identifies emodin, a natural compound from Rheum palmatum Linn that inhibits DPP4” (PeerJ, 2017).
Where a name gives a salt, the structure may show the parent alone. Read-outs that look alike come from different tables or passages of the source.

Target: DPP4 (Homo sapiens, UniProt P27487)
Test: DPP4 activity assay (DPP4 inhibitor screening assay kit, Cayman);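 note: fluorescence read at excitation 360 nm and emission 460 nm after the enzyme reaction ran 30 min at 37 °C in a 96-well plate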
Assay type: biochemical
Set-up: purchased Cayman Chemical, Ann Arbor, MI, USA
Conditions: control mean 100.0; for remaining activity at 10 µM: 0.5 h
[1] = 10 µM, Figure 1A raw data, read-out: DPP4 activity in library screen, Exp 1
[2] = 10 µM, Figure 1A raw data, read-out: DPP4 activity in library screen, Exp 2
[3] = 10 µM, Figure 1A raw data, read-out: DPP4 activity in library screen, Exp 3
[4] = 10 µM, mean of Exp 1-3, read-out: DPP4 activity in library screen, Mean

DPP4, sequence (P27487 whole entry): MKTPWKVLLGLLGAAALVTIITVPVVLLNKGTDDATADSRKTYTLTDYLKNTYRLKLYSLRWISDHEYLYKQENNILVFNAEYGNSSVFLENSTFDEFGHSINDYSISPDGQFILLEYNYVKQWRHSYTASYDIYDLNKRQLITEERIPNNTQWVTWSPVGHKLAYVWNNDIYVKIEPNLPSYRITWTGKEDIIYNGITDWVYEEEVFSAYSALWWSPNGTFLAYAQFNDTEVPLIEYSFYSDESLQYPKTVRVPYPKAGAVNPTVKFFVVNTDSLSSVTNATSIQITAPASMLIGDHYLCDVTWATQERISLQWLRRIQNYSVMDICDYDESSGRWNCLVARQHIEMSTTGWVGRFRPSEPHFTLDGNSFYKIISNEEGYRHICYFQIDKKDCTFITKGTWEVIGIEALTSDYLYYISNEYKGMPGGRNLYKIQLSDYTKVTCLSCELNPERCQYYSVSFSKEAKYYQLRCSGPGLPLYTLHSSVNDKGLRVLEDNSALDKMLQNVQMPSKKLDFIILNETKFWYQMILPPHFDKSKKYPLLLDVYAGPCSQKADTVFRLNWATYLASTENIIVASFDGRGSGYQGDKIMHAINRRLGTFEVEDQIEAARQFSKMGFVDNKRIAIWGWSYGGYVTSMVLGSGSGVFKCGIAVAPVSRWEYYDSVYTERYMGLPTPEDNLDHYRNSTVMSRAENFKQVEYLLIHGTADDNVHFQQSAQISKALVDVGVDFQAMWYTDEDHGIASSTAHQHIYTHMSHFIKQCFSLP

| Structure (SMILES) | remaining activity at 10 µM [1] | remaining activity at 10 µM [2] | remaining activity at 10 µM [3] | remaining activity at 10 µM [4] | also measured |
| --- | --- | --- | --- | --- | --- |
| COc1ccc([C@@H]2CC(=O)c3c(O)cc(O[C@@H]4O[C@H](CO[C@@H]5O[C@@H](C)[C@H](O)[C@@H](O)[C@H]5O)[C@@H](O)[C@H](O)[C@H]4O)cc3O2)cc1O [Hesperidin] | – | – | – | – | DPP4 activity in library screen, Exp 1 (10 µM, Figure 1A raw data): 97.2; DPP4 activity in library screen, Exp 2 (10 µM, Figure 1A raw data): 95.1; DPP4 activity in library screen, Exp 3 (10 µM, Figure 1A raw data): 85.1; DPP4 activity in library screen, Mean (10 µM, mean of Exp 1-3): 92.5 |
| O.O=c1c(O)c(-c2ccc(O)cc2O)oc2cc(O)cc(O)c12 [Morin Hydrate] | – | – | – | – | DPP4 activity in library screen, Exp 1 (10 µM, Figure 1A raw data): 79.5; DPP4 activity in library screen, Exp 2 (10 µM, Figure 1A raw data): 73.7; DPP4 activity in library screen, Exp 3 (10 µM, Figure 1A raw data): 79.4; DPP4 activity in library screen, Mean (10 µM, mean of Exp 1-3): 77.5 |
| C[C@H]1[C@H](C)CC[C@]2(C(=O)O)CC[C@]3(C)C(=CC[C@@H]4[C@@]5(C)C[C@@H](O)[C@H](O)[C@@](C)(CO)[C@@H]5CC[C@]43C)[C@H]12 [Asiatic Acid] | 83.3% | 65.3% | 130% | 93% | – |
| CNCC(O)c1ccc(O)cc1 (stereo not shown) [Synephrine] | 98.7% | 76.9% | 87.7% | 87.8% | – |
| C[C@@H]1O[C@@H](O[C@H]2[C@H](Oc3cc(O)c4c(c3)O[C@H](c3ccc(O)cc3)CC4=O)O[C@H](CO)[C@@H](O)[C@@H]2O)[C@H](O)[C@H](O)[C@H]1O [Naringin] | 116% | 82.6% | 68.6% | 89.2% | – |
| OC[C@@H](O)[C@@H](O)[C@H](O)[C@@H](O)CO [Sorbitol] | 94.5% | 91.5% | 90.4% | 92.1% | – |
| O=c1c2ccccc2nc2n1CCc1c-2[nH]c2ccccc12 [Rutaecarpine] | 71.3% | 78.6% | 71.4% | 73.8% | – |
| C[C@H]1C(=O)O[C@@H]2CCN3CC=C(COC(=O)[C@](C)(O)[C@]1(C)O)[C@H]23 [Monocrotaline] | 70.9% | 95.8% | 85.1% | 83.9% | – |
| Br.CCN1C[C@]2(OC(=O)c3ccccc3NC(C)=O)CC[C@H](OC)[C@]34C1[C@H](C[C@H]23)[C@@]1(O)C[C@H](OC)[C@H]2C[C@@H]4[C@]1(O)[C@H]2OC [Lappaconite HBr] | – | – | – | – | DPP4 activity in library screen, Exp 1 (10 µM, Figure 1A raw data): 95.4; DPP4 activity in library screen, Exp 2 (10 µM, Figure 1A raw data): 80.2; DPP4 activity in library screen, Exp 3 (10 µM, Figure 1A raw data): 92.6; DPP4 activity in library screen, Mean (10 µM, mean of Exp 1-3): 89.4 |
| COc1ccc2cc3[n+](cc2c1OC)CCc1cc2c(cc1-3)OCO2.[Cl-] [Berberine HCl] | – | – | – | – | DPP4 activity in library screen, Exp 1 (10 µM, Figure 1A raw data): 52.4; DPP4 activity in library screen, Exp 2 (10 µM, Figure 1A raw data): 58.4; DPP4 activity in library screen, Exp 3 (10 µM, Figure 1A raw data): 54.2; DPP4 activity in library screen, Mean (10 µM, mean of Exp 1-3): 55.0 |
| CC1(C)CCC[C@]2(C)[C@H]3CC(=O)O[C@]3(C)CC[C@@H]12 [Sclareolide] | – | – | – | – | DPP4 activity in library screen, Exp 1 (10 µM, Figure 1A raw data): 95.1; DPP4 activity in library screen, Exp 2 (10 µM, Figure 1A raw data): 80.7; DPP4 activity in library screen, Exp 3 (10 µM, Figure 1A raw data): 80.2; DPP4 activity in library screen, Mean (10 µM, mean of Exp 1-3): 85.3 |
| O=C(O)[C@H]1O[C@@H](Oc2cc3oc(-c4ccccc4)cc(=O)c3c(O)c2O)[C@H](O)[C@@H](O)[C@@H]1O [Baicalin] | 71.4% | 51.3% | 111% | 77.9% | – |
| O=C1c2c(O)cccc2C([C@@H]2O[C@H](CO)[C@@H](O)[C@H](O)[C@H]2O)c2cc(CO)cc(O)c21 (stereo partly shown) [Aloin] | 91.5% | 70.4% | 71.7% | 77.9% | – |
| OC[C@@H](O)[C@@H](O)[C@H](O)[C@H](O)CO [D-Mannitol] | 96% | 95.6% | 83.5% | 91.7% | – |
| C=CCc1ccc(O)c(-c2cc(CC=C)ccc2O)c1 [Magnolol] | 97.6% | 108% | 83.9% | 96.4% | – |
| O=C1Nc2ccccc2/C1=C1/Nc2ccccc2C1=O [Indirubin] | 53.9% | 58.9% | 61.7% | 58.2% | – |
| CCCCCCCCCCCCCCCC(=O)OC[C@@]1(O)C[C@@]23CC[C@@H]4c5ccoc5CC[C@@]4(C)[C@@H]2CC[C@@H]1C3 [Cafestol palmitate] | – | – | – | – | DPP4 activity in library screen, Exp 1 (10 µM, Figure 1A raw data): 96.3; DPP4 activity in library screen, Exp 2 (10 µM, Figure 1A raw data): 108.3; DPP4 activity in library screen, Exp 3 (10 µM, Figure 1A raw data): 144; DPP4 activity in library screen, Mean (10 µM, mean of Exp 1-3): 116.2 |
| O=c1[nH]cnc2nc[nH]c12 [Hypoxanthine] | 96.7% | 99.3% | 98.5% | 98.2% | – |
| COc1ccc(C(C)=O)c(O)c1 [Paeonol] | 80.3% | 92.8% | 99.9% | 91% | – |

| Structure (SMILES) | remaining activity at 10 µM [1] | remaining activity at 10 µM [2] | remaining activity at 10 µM [3] | remaining activity at 10 µM [4] | also measured |
| --- | --- | --- | --- | --- | --- |
| COc1ccc(-c2cc(=O)c3c(OC)c(OC)c(OC)c(OC)c3o2)cc1OC [Nobiletin] | 81.7% | 69.9% | 67.6% | 73.1% | – |
| COc1cc2c(cc1OC)[C@@H]1Cc3ccc(OC)c(OC)c3CN1CC2 [Rotundine] | 103% | 99.8% | 104% | 102% | – |
| COC(=O)[C@@H]1[C@H]2C[C@H]3c4[nH]c5ccccc5c4CCN3C[C@@H]2CC[C@@H]1O [Yohimbine HCl] | – | – | – | – | remaining activity at 10 µM (read-out: DPP4 activity in library screen, Exp 1, 10 µM, Figure 1A raw data): 92.1%; remaining activity at 10 µM (read-out: DPP4 activity in library screen, Exp 2, 10 µM, Figure 1A raw data): 92.7%; remaining activity at 10 µM (read-out: DPP4 activity in library screen, Exp 3, 10 µM, Figure 1A raw data): 90.1%; remaining activity at 10 µM (read-out: DPP4 activity in library screen, Mean, 10 µM, mean of Exp 1-3): 91.6% |
| COc1cc(C=O)ccc1O [Vanillin] | 105% | 95.3% | 51.5% | 83.8% | – |
| CC[C@@]1(O)C(=O)OCc2c1cc1n(c2=O)Cc2cc3cc(O)ccc3nc2-1 [(S)-10-Hydroxycamptothecin] | 87.4% | 77.6% | 85.7% | 83.6% | – |
| COC12c3c(C)cc(O)c4c(=O)occ(c34)C(=O)C1C13COC(=O)c4c(O)cc(C)c(c41)C(=O)C2C3OC(C)=O (stereo not shown) [duclauxin] | – | – | – | – | DPP4 activity in library screen, Exp 1 (10 µM, Figure 1A raw data): 98.3; DPP4 activity in library screen, Exp 2 (10 µM, Figure 1A raw data): 99.5; DPP4 activity in library screen, Exp 3 (10 µM, Figure 1A raw data): 163.1; DPP4 activity in library screen, Mean (10 µM, mean of Exp 1-3): 120.3 |
| COc1ccc2cc1Oc1ccc(cc1)C[C@H]1c3cc(c(OC)cc3CCN1C)Oc1c(OC)c(OC)cc3c1[C@H](C2)N(C)CC3 [Tetrandrine] | 99.9% | 98% | 99.8% | 99.2% | – |
| c1coc(CNc2ncnc3[nH]cnc23)c1 [Kinetin] | 97.6% | 93.8% | 93% | 94.8% | – |
| C[C@@H]1O[C@@H](OC[C@H]2O[C@@H](Oc3c(-c4ccc(OCCO)c(OCCO)c4)oc4cc(OCCO)cc(O)c4c3=O)[C@H](O)[C@@H](O)[C@@H]2O)[C@H](O)[C@H](O)[C@H]1O [Troxerutin] | 69.8% | 62.2% | 57.2% | 63.1% | – |
| O=c1c(-c2ccc(O)cc2)coc2c([C@@H]3O[C@H](CO)[C@@H](O)[C@H](O)[C@H]3O)c(O)ccc12 [Puerarin] | 94.4% | 98% | 93.8% | 95.4% | – |
| O=C(O)Cc1c[nH]c2ccccc12 [Indole-3-acetic acid] | 115% | 108% | 121% | 115% | – |
| COc1cc2c(cc1O)C[C@@H]1NCCc3cc(OC)c(O)c-2c31 [Norisoboldine] | – | – | – | – | DPP4 activity in library screen, Exp 1 (10 µM, Figure 1A raw data): 95.3; DPP4 activity in library screen, Exp 2 (10 µM, Figure 1A raw data): 99.3; DPP4 activity in library screen, Exp 3 (10 µM, Figure 1A raw data): 71; DPP4 activity in library screen, Mean (10 µM, mean of Exp 1-3): 88.5 |
| OC[C@H]1O[C@@H](Oc2ccc(O)cc2)[C@H](O)[C@@H](O)[C@@H]1O [Arbutin] | 95.9% | 96.2% | 96.1% | 96.1% | – |
| Cc1coc2c1C(=O)C(=O)c1c-2ccc2c1CCCC2(C)C [Tanshinone IIA] | 50.8% | 56.6% | 69.7% | 59% | – |
| COc1ccc([C@@]23Oc4cc(OC)cc(OC)c4[C@]2(O)[C@H](O)[C@H](C(=O)N(C)C)[C@H]3c2ccccc2)cc1 [Rocaglamide] | 100% | 100% | 94.9% | 98.5% | – |
| C[C@H]1COC2=C1C(=O)C(=O)c1c2ccc2c1CCCC2(C)C [Cryptotanshinone] | 60.3% | 66.5% | 58.2% | 61.7% | – |
| O=C1C=CC[C@@H]2[C@H]3CCCN4CCC[C@@H](CN12)[C@@H]34 [Sophocarpine] | 96.7% | 109% | 111% | 105% | – |
| Cc1coc2c1C(=O)C(=O)c1c-2ccc2c(C)cccc12 [Tanshinone I] | 56.8% | 59.3% | 58.1% | 58.1% | – |
